Measured values reported in article PMC8344022, “Small-molecule inhibitor of AF9/ENL-DOT1L/AF4/AFF4 interactions suppresses malignant gene expression and tumor growth” (Theranostics, 2021).
No end group written: not given here. *: point of attachment. FITC = O=C1OC2(c3ccc(O)cc3Oc3cc(O)ccc32)c2ccc(NC(=S)*)cc21; Ahx = NCCCCCC(=O)O

What was measured:
[1] = target: T1, AF9-DOT1L interaction (Homo sapiens, UniProt P42568); assay: Alpha assay, AF9 AHD-DOT1L peptide interaction; format: binding; settings: read-out: IC50, inhibition of AF9-DOT1L interaction
T1 construct: cDNA for human AF9 AHD domain (475-568) and ENL AHD domain (489-559) was synthesized; made in house; host or cells: E. coli BL21(DE3)
T1 sequence (P42568 475-568): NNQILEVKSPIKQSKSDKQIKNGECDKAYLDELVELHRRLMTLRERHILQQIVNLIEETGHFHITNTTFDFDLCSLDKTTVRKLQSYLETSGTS
From the text: (§1) We developed an Alpha (amplified luminescent proximity homogeneous assay) assay to determine the binding and inhibition of the PPI between maltose-binding protein (MBP)-tagged AF9 AHD and a biotin-labeled DOT1L peptide, using AlphaLisa streptavidin donor beads and anti-MBP acceptor beads. Laser excitation to the donor beads generates singlet oxygen radicals, which can travel for <200 nm in solution and cannot reach the free acceptor beads. The PPI brings the DOT1L coated donor beads and AHD coated acceptor beads together, allowing the radicals to activate the acceptor beads and produce luminescence. […] We also developed a fluorescence polarization (FP) assay. A fluorescein-labeled DOT1L peptide has a higher freedom in solution with a lower polarization value.
(§2) Alpha assays. Alpha assays were developed using Perkin-Elmer AlphaLisa anti-MBP kit, which contains streptavidin donor beads and anti-MBP acceptor beads. The assay was performed using a MBP-protein (5 nM), a biotinylated peptide (40 nM), and increasing concentrations of a compound in 25 µL buffer (PBS with 0.5 % BSA, pH 7.5) in 384-well plates according to the manufacturer's protocol and measured with a Tecan SPARK microplate reader. Data were imported into Prism (version 5.0), and IC50 values from 3 independent experiments with standard deviation were obtained by using a standard dose-response curve fitting.

[2] = target: T2, AF9-AF4 interaction (Homo sapiens, UniProt P42568); assay: Alpha assay, AF9-AF4 interaction; format: binding; settings: read-out: IC50, inhibition of AF9-AF4 interaction
T2 construct: cDNA for human AF9 AHD domain (475-568) and ENL AHD domain (489-559) was synthesized; made in house; host or cells: E. coli BL21(DE3)
Experimental: (§3) ENL is also a major MLL fusion partner (~10%). The AHD domains of human ENL and AF9 share a high homology with 82% identity and 89% similarity (Figure S1A). […] Our attempts to develop an Alpha assay for ENL-DOT1L failed. […] Compound 1's activity against ENL-DOT1L was therefore not determined.
as §2

[3] = target: T3, AF9-AFF4 interaction (Homo sapiens, UniProt P42568); assay: Alpha assay, AF9-AFF4 interaction; format: binding; settings: read-out: IC50, inhibition of AF9-AFF4 interaction
T3 construct: cDNA for human AF9 AHD domain (475-568) and ENL AHD domain (489-559) was synthesized; made in house; host or cells: E. coli BL21(DE3)
Experimental: as §3, §2

[4] = target: T4, ENL-AF4 interaction (Homo sapiens, UniProt Q03111); assay: Alpha assay, ENL-AF4 interaction; format: binding; settings: read-out: IC50, inhibition of ENL-AF4 interaction
T4 construct: ENL AHD domain (489-559) was synthesized (by Genscript) and inserted into the pMAL c5X expression plasmid; made in house; host or cells: E. coli BL21(DE3)
Experimental: as §3, §2

[5] = target: T5, ENL-AFF4 interaction (Homo sapiens, UniProt Q03111); assay: Alpha assay, ENL-AFF4 interaction; format: binding; settings: read-out: IC50, inhibition of ENL-AFF4 interaction
T5 construct: ENL AHD domain (489-559) was synthesized (by Genscript) and inserted into the pMAL c5X expression plasmid; made in house; host or cells: E. coli BL21(DE3)
Experimental: as §3, §2

[6] = target: T1, AF9-DOT1L interaction; assay: Fluorescence polarization (FP) inhibition assay, AF9-DOT1L; format: binding
From the text: as §1
Fluorescence polarization assay. It was performed in 96-well black microplates with each well containing a Fluorescein-labeled peptide (2 nM) and increasing concentration of a AF9/ENL protein in a buffer (20 mM HEPES, pH 7.5, 0.01% Triton X-100, 100 µL) for Kd determination. For IC50 determination, a Fluorescein-labeled peptide (2 nM), AF9/ENL protein (100 nM) and increasing concentration of a compound in the same buffer were placed in each well. Upon incubation of 1h, the FP value of each well was determined using a Tecan SPARK microplate reader. Data were similarly processed to obtain Kd or IC50 values.

[7] = target: T6, AF9 AHD bound to DOT1L-coated beads (Homo sapiens, UniProt P42568); assay: Western blot based pull-down assay; format: binding; settings: increasing concentrations
T6 construct: cDNA for human AF9 AHD domain (475-568) and ENL AHD domain (489-559) was synthesized; made in house; host or cells: E. coli BL21(DE3)
Experimental: A non-optical pull-down assay was used to further validate compound 1. DOT1L-coated beads were incubated with AF9 AHD in the presence of increasing concentrations of 1.
Western blot based pull-down assay. Biotinylated DOT1L peptide (0.25 mg/mL) was incubated with streptavidin agarose beads in PBS containing 0.1% Triton X-100 (400 µL) for 3h to yield, after washing, DOT1L-coated beads. MBP-AF9 AHD (0.2 µM, 40 µL) was pre-incubated with a compound for 30 min before adding to the beads. After 6 hours incubation at 4 °C, the beads were collected, thoroughly washed, and subjected to SDS-PAGE and analyzed by Western blot using an MBP Mouse mAb (#2396, Cell signaling).

[8] = system: HL60 cells; assay: Antiproliferation assay (XTT); format: cell-based; settings: Homo sapiens, HL-60, 168 h, 7-day incubation, read-out: Cytotoxicity EC50
Experimental: (§4) Antiproliferation assay. Proliferation inhibition assays for suspension blood cancer cells were performed using an XTT assay kit (Roche). Proliferation inhibition assays for solid tumor cell lines MCF-7, MDA-MB-231, Panc1, Panc28 were performed using an MTT assay (Sigma). The antiproliferation EC50 values were determined using Prism 5 and the reported results were the mean values of at least three independent experiments. The incubation time for compound 1 was 7 days and that for EPZ4777 was 14 days.

[9] = system: Jurkat cells; assay: Antiproliferation assay (XTT); format: cell-based; settings: Homo sapiens, 168 h, 7-day incubation, read-out: Cytotoxicity EC50
Experimental: as §4

[10] = system: Kasumi-1 cells; assay: Antiproliferation assay (XTT); format: cell-based; settings: Homo sapiens, 168 h, 7-day incubation, read-out: Cytotoxicity EC50
Experimental: as §4

[11] = system: MV4;11 cells; assay: Antiproliferation assay (XTT); format: cell-based; settings: Homo sapiens, 168 h, 7-day incubation, read-out: Cytotoxicity EC50
Experimental: as §4

[12] = system: Molm-13 cells; assay: Antiproliferation assay (XTT); format: cell-based; settings: Homo sapiens, 168 h, 7-day incubation, read-out: Cytotoxicity EC50
Experimental: as §4

[13] = system: RPMI-8226 cells; assay: Antiproliferation assay (XTT); format: cell-based; settings: Homo sapiens, 168 h, 7-day incubation, read-out: Cytotoxicity EC50
Experimental: as §4

[14] = system: THP-1 cells; assay: Antiproliferation assay (XTT); format: cell-based; settings: Homo sapiens, 168 h, 7-day incubation, read-out: Cytotoxicity EC50
Experimental: as §4

[15] = system: U266 cells; assay: Antiproliferation assay (XTT); format: cell-based; settings: Homo sapiens, U-266, 168 h, 7-day incubation, read-out: Cytotoxicity EC50
Experimental: as §4

[16] = system: MCF-7 cells; assay: Antiproliferation assay (MTT); format: cell-based; settings: Homo sapiens, MCF7, 168 h, 7-day incubation, read-out: Cytotoxicity EC50
Experimental: as §4

[17] = system: MDA-MB-231 cells; assay: Antiproliferation assay (MTT); format: cell-based; settings: Homo sapiens, 168 h, 7-day incubation, read-out: Cytotoxicity EC50
Experimental: as §4

[18] = system: Panc-1 cells; assay: Antiproliferation assay (MTT); format: cell-based; settings: Homo sapiens, 168 h, 7-day incubation, read-out: Cytotoxicity EC50
Experimental: as §4

[19] = system: Panc-28 cells; assay: Antiproliferation assay (MTT); format: cell-based; settings: 168 h, 7-day incubation, read-out: Cytotoxicity EC50
Experimental: as §4

[20] = system: cancer cells; assay: Antiproliferation assays, cancer cell panel; format: cell-based; settings: all cancer cells tested; read-out: EC50 against proliferation
Experimental: The differential antiproliferation activities of compound 1 is consistent with its ability to suppress DOT1L/H3K79 methylation and SEC regulated gene expression, which are critical to MLL-r leukemia and Myc-driven blood cancer, but largely dispensable to other solid tumor cells.
as §4

[21] = system: HoxA9, Meis1 and Myc expression in MV4;11 cells; assay: qPCR of MLL target genes; format: cell-based; settings: 4 days
Experimental: (§5) Next, compound 1 was tested for its ability to change expression of characteristic MLL-r leukemia genes HoxA9, Meis1 and Myc. Myc is also overexpressed in a broad range of AML and other cancers. […] (Figure S5), presumably because SEC is not recruited there.
(§6) RNA extraction and Quantitative real-time PCR (qPCR). 10^5 cells/ml were incubated with a compound for 4 days and the RNA was extracted using RNeasy mini kit (#74104, Qiagen). 100-1000 ng of total RNA was reverse transcribed using iScript™ Reverse Transcription Supermix (Bio-Rad) using the manufacturer's protocol. Quantitative real-time PCR was carried out using Fast SYBR Green Master Mix (Applied Biosystems) according to the manufacturer's instructions. Measurements were performed in triplicate, using GAPDH as the reference gene. Real-time PCR was performed using Biosystems Step One Plus detection system. The following sequences of primers are used: […]

[22] = system: HoxA9, Meis1 and Myc expression in Molm-13 cells; assay: qPCR of MLL target genes; format: cell-based; settings: 4 days
Experimental: as §5, §6

[23] = target: T7, maltose-binding protein (MBP)-tagged AF9 AHD domain (475-568) (human, UniProt P42568 475-568); assay: fluorescence polarisation; direct titration: fluorescein-labeled peptide 2 nM, increasing concentration of AF9/ENL protein; 20 mM HEPES, pH 7.5, 0.01% Triton X-100; 1 h incubation; settings: both partners purified
T7 construct: human AF9, AHD domain, residues 475-568; cDNA synthesized by Genscript, in pMAL c5X; No cleavage of MBP is described; the protein is captured or detected by anti-MBP in the Alpha and pull-down assays; also called MBP-AF9 AHD; source: E. coli BL21(DE3), purified (amylose resin, size exclusion)
T7 sequence (looked up): T1 sequence (P42568 475-568)

[24] = target: T8, maltose-binding protein (MBP)-tagged ENL AHD domain (489-559) (human, UniProt Q03111 489-559); assay: as above; settings: both partners purified
T8 construct: human ENL, AHD domain, residues 489-559; cDNA synthesized by Genscript, in pMAL c5X; No cleavage of MBP is described; source: E. coli BL21(DE3), purified (amylose resin, size exclusion)
T8 sequence (looked up): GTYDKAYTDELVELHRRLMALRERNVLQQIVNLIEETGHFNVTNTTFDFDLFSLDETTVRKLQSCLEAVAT

## NKLPVSIPLASVVLPSRAERARST [DOT1L]
[1]
  IC50: 13 ± 1 nM
[2]
  IC50: 60 ± 12 nM
[3]
  IC50: 95 ± 16 nM
[4]
  IC50: 13200 ± 1100 nM
[5]
  IC50: 2000 ± 100 nM
[6]
  IC50: 72 nM

## O=C(NC1CCNCC1)c1cn(-c2ccc(-c3cn[nH]c3)cc2)c(-c2ccccc2)n1 [Compound 3]
[1]
  IC50: > 50000 nM
[7]
  Beads-bound AF9 AHD in pull-down (Western blot): cannot
[8]
  EC50: > 50000 nM
[9]
  EC50: > 50000 nM
[10]
  EC50: > 50000 nM
[11]
  EC50: > 50000 nM
[12]
  EC50: > 50000 nM
[13]
  EC50: > 50000 nM
[14]
  EC50: > 50000 nM
[15]
  EC50: > 50000 nM
[16]
  EC50: > 50000 nM
[17]
  EC50: > 50000 nM
[18]
  EC50: > 50000 nM
[19]
  EC50: > 50000 nM
[20]
  EC50: > 50000 nM
[21]
  Expression of MLL target genes HoxA9, Meis1 and Myc: had no activity
[22]
  Expression of MLL target genes HoxA9, Meis1 and Myc: had no activity

## CC(C)(C)c1ccc(-n2cc(C(=O)Nc3ccncc3)nc2-c2ccccc2)cc1 [Compound 7]
[1]
  IC50: 22700 nM

B1: FITC-AHX-AF4 peptide (peptide)
peptide: {FITC-Ahx}-QSLMVKITLDLLSRIPQPPGK
notes: Used in the FP assay; source: synthetic peptide, bought: Genscript
[23]
  Kd: 18 ± 1 nM
[24]
  Kd: 9.6 ± 1.7 nM

B2: FITC-AHX-DOT1L peptide (peptide)
peptide: {FITC-Ahx}-NKLPVSIPLASVVLPSRAERARST
notes: Used in the FP assay; also called fluorescein-labeled DOT1L peptide; source: synthetic peptide, bought: Genscript
[23]
  Kd: 87 ± 9 nM
[24]
  Kd: 640 ± 60 nM

B3: FITC-AHX-AFF4 peptide (peptide)
peptide: {FITC-Ahx}-YPLIVKIDLNLLTRIPGKPYK
notes: as for B1
[23]
  Kd: 15 ± 1 nM
[24]
  Kd: 31 ± 6 nM
